Assay results: patent US11779567B2, “Method for optimizing 5-hydroxytryptamine function in the brain for therapeutic purposes” (Evecxia Therapeutics, Inc., priority 2021, dated 2023)
In brackets after ≈: the same amount, converted by molar mass. Several values for one entry are separate records, joined by “and”; a condition that tells them apart may be missing. Equal values may be shown once.

Key:
[1] = Solubility of 5-HTP; type: physicochemical; conditions: water, read-out: aqueous solubility
Method: The aqueous solubility of 5-HTP is approximately 10 mg/ml. However, 5-HTP has been reported to be soluble to up to about 100 mg/ml in some solvents (Jacobsen et al, 2016a). In some embodiments, the concentration of 5-HTP in the infusion solutions (i.e., the infusate fluids) is between about 1 mg/ml and about 10 mg/ml. In some embodiments, the concentration is between about 0.1 mg/ml and about 1 mg/ml. In some embodiments, the concentration is between about 10 mg/ml and about 100 mg/ml.

[2] = Safety and tolerability of IV 5-HTP continuous infusion; type: in vivo, human
Method: Methods: Safety and tolerability of the IV 5-HTP continuous infusion were assessed during the 24 hr administration of IV 5-HTP infusion (see Example 5) or placebo and approximately 24 hr after end of the infusion. Safety and tolerability of the IV 5-HTP infusion were assessed by monitoring of adverse events (AEs), standard clinical safety laboratory tests, electrocardiograms (ECG), vital signs, and clinical scales of suicidality. The safety population included all subjects. Vital sign measurements included systolic blood pressure (mmHg), diastolic blood pressure (mmHg), heart rate (beats/min), respiratory rate (breaths/min), and oral temperature. Twelve-lead electrocardiogram measurements were performed in triplicate. The recorded parameters included heart rate (beats/min), PR (msec), QRS (msec), and QTcF (msec). Assessments were rated as normal, not clinically significant, or clinically significant. Clinical laboratory tests included a complete blood count, chemistry panel, coagulation panel, and thyroid stimulating hormone.
Statistics: Descriptive statistics (n, mean, SD, minimum, and maximum) for absolute values and changes from baseline were calculated.

[3] = Dose-proportionality assessment (power model) of IV 5-HTP continuous infusion; type: in vivo, human; conditions: doses up to 3 mg/kg/24 hr
Description: Background: The term dose proportionality denotes a proportional and linear relationship between dose and a pharmacokinetic measure, for the specific (i) dose-range, (i) dosing route, and (iii) dosing regimen investigated. More particularly, if doubling the dose doubles the pharmacokinetic measure of maximal (CMax) or total (AUC) systemic exposure to the compound administered, then dose proportionality is present, at least within the dose ranges examined. […] The relationship between dose and plasma compound concentration (C (e.g., CMax or AUC)) can be described via the following equation: C=α dose^β When β=1, dose proportionality is present. If so, C=α dose. α is a constant relating dose to C, for a given range of C and given dose units, and is identical to the slope of the regression line. In the power model (Smith et al, 2000), dose proportionality is assessed via the following linear equation: log(C)=log(α)+β×log(dose)+error Based on standard statistical methods for linear models, estimates for β together with confidence limits can be derived. […]
Methods: Applying the approach by Smith (Smith et al, 2000), using a general linear model and SAS software Version 9.4, dose proportionality of continuously administered IV 5-HTP was assessed using the data in Table 9, below. […]

[4] = 2 mg/kg/24 hr ramp rate infusion
[5] = ramp flow rate, 1 mg/kg/24 hr, subjects with event/subjects

N[C@@H](Cc1c[nH]c2ccc(O)cc12)C(=O)O [5-HTP, 5-hydroxytryptophan]
solubility [1]: ~10000 µg/mL (≈ 45.4 mM)
subjects in whom AEs occurred ([2]; 1 mg/kg/24 hr, ramp flow rate infusion): 2 subjects
mild AEs: chills, subjects with event [2, 4]: 1 and 1/6
mild AEs: dizziness, subjects with event [2, 4]: 1 and 1/6
5-HTP plasma exposure with which incidence of AEs was more commonly associated ([2]; all cohorts): > 100 ng/mL
severity of all AEs ([2]; all cohorts): mild-to-moderate
safety findings in clinical safety laboratory tests, vital signs, 12-lead electrocardiograms ([2]; all cohorts, 24 hr IV 5-HTP infusion): no safety findings
serious or severe AEs related to the IV 5-HTP infusion ([2]; any subjects, all cohorts): No serious or severe AEs
AEs ([2]; constant flow rate, 1 mg/kg/24 hr group): no AEs
concentration at 1 h ([2]; human, plasma, intravenous, constant rate 3 mg/kg/24 hr, read-out: plasma 5-HTP levels within 1 h in the subjects who discontinued): 250 to 300 ng/mL
5-HTP plasma levels associated with manifestation of AEs ([2]; ramp flow rate 1 mg/kg/24 hr, at highest flow rate 55.55 ml/h): 112 to 266 ng/mL
mild AEs: nausea [2, 5]: 1/5
mild AEs: vomiting [2, 5]: 1/5
moderate AEs: nausea [2, 5]: 1/5
moderate AEs: vomiting [2, 5]: 1/5
dose proportionality [3]: dose proportionality for doses up to 3 mg/kg/24 hr was accepted
